Assay results as given in patent publication US12319672B2, “Alpha-D-galactopyranoside derivatives” (Idorsia Pharmaceuticals Ltd, priority 2019, dated 2025).

Key:
human Gal-1 (hGal-1) = assay: Competitive binding assay: binding of biotinylated hGal-1 to microplate-adsorbed asialofetuin (ASF); details: Activities on hGal-1; mean values of several measurements
Procedure, shortened: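 Spectrophotometric readout (streptavidin-peroxidase, ABTS) of biotinylated galectin retained on ASF-coated wells. Biotinylated hGal-1 or hGal-3, 300-1000 ng/mL, co-incubated with test compound 3 h at 4° C, then washed. Mean IC50 from repeat runs.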

human Gal-3 (hGal-3) = human Gal-3 (hGal-3) (Homo sapiens (Human), UniProt P17931); assay: Competitive binding assay: binding of biotinylated hGal-3 to microplate-adsorbed asialofetuin (ASF); details: Activity on hGal-3; mean values of several measurements
Chain of human Gal-3 (hGal-3) (P17931 whole entry): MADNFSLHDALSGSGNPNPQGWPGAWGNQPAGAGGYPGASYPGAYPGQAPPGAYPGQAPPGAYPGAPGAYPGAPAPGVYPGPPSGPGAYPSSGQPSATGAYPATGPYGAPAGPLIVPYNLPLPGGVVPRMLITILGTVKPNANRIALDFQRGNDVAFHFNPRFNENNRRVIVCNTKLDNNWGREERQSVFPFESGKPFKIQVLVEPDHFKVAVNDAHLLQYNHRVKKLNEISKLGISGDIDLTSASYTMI
Procedure, shortened: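 Compounds in DMSO dilution series competed with 300-1000 ng/mL biotinylated hGal-3 for asialofetuin adsorbed on the plate (3 h, 4° C). Streptavidin-peroxidase at 80 ng/mL (1 h, 4° C) with ABTS gave a spectrophotometric read-out, and IC50 was reported as the mean of repeat runs.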

Chain of human Gal-1 (hGal-1) (P09382 2-135 limits assumed): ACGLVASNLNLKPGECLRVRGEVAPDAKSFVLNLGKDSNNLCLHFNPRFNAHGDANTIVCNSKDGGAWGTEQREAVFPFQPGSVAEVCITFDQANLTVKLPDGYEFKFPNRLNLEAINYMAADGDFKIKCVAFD

IC50 (human Gal-1 (hGal-1))	IC50 (human Gal-3 (hGal-3))	Compound
8.36 µM	0.84 µM	COc1ccc(-c2cc(C[C@H]3O[C@H](CO)[C@H](O)[C@H](n4cc(-c5cc(F)c(F)c(F)c5)nn4)[C@H]3O)on2)cc1 [Example 2.01, (2R,3R,4R,5R,6R)-2-(hydroxymethyl)-6-((3-(4-methoxyphenyl)isoxazol-5-yl)methyl)-4-(4-(3,4,5-trifluorophenyl)-1H-1,2,3-triazol-1-yl)tetrahydro-2H-pyran-3,5-diol]
5.1 µM	0.37 µM	CO[C@@H]1[C@@H](n2cc(-c3cc(F)c(F)c(F)c3)nn2)[C@@H](O)[C@@H](CO)O[C@@H]1C[C@H]1CC(C2CCN(S(=O)(=O)C(C)C)CC2)=NO1 [Example 3.60, (2R,3R,4S,5R,6R)-2-(hydroxymethyl)-6-(((R)-3-(1-(isopropylsulfonyl)piperidin-4-yl)-4,5-dihydroisoxazol-5-yl)methyl)-5-methoxy-4-(4-(3,4,5-trifluorophenyl)-1H-1,2,3-triazol-1-yl)tetrahydro-2H-pyran-3-ol]
0.36 µM	0.033 µM	CO[C@@H]1[C@@H](n2cc(-c3ccc(Cl)c(F)c3F)nn2)[C@@H](O)[C@@H](CO)O[C@@H]1Cc1cc(C2CCN(S(C)(=O)=O)CC2)on1 [Ex 1.154]
5.98 µM	0.45 µM	CO[C@@H]1[C@@H](n2cc(-c3cc(F)cc(Cl)c3)nn2)[C@@H](O)[C@@H](CO)O[C@@H]1Cc1cc(C2CCOCC2)on1 [Ex 1.187]
1.05 µM	0.042 µM	CO[C@@H]1[C@@H](n2cc(-c3ccc(Cl)c(F)c3F)nn2)[C@@H](O)[C@@H](CO)O[C@@H]1Cc1cc(C(C)(C)CO)no1 [Ex 1.261]
4.76 µM	0.14 µM	CO[C@@H]1[C@@H](n2cc(-c3cc(F)c(F)c(F)c3)nn2)[C@@H](O)[C@@H](CO)O[C@@H]1Cc1cc(C2CNC(=O)C2)no1 (some centres unmarked) [Ex 1.94]
2.42 µM	0.022 µM	Cc1ccc(-c2cn([C@H]3[C@@H](O)[C@@H](CO)O[C@H](Cc4cc(C(C)(C)C)no4)[C@@H]3OC(N)=O)nn2)c(F)c1F [Example 2.45, (2R,3R,4S,5R,6R)-2-((3-(tert-butyl)isoxazol-5-yl)methyl)-4-(4-(2,3-difluoro-4-methylphenyl)-1H-1,2,3-triazol-1-yl)-5-hydroxy-6-(hydroxymethyl)tetrahydro-2H-pyran-3-yl carbamate]
0.93 µM	0.048 µM	CCCC(=O)N1CCC(c2cc(C[C@H]3O[C@H](CO)[C@H](O)[C@H](n4cc(-c5cc(F)c(F)c(F)c5)nn4)[C@H]3OC)no2)CC1 [Example 3.35, 1-(4-(3-(((2R,3R,4S,5R,6R)-5-hydroxy-6-(hydroxymethyl)-3-methoxy-4-(4-(3,4,5-trifluorophenyl)-1H-1,2,3-triazol-1-yl)tetrahydro-2H-pyran-2-yl)methyl)isoxazol-5-yl)piperidin-1-yl)butan-1-one]
3.91 µM	1.62 µM	CO[C@@H]1[C@@H](n2cc(-c3ccc4ccccc4c3)nn2)[C@@H](O)[C@@H](CO)O[C@@H]1CC1CC(C2CCN(C(=O)OC(C)(C)C)CC2)=NO1 (some centres unmarked) [Ex 1.304]
1.08 µM	0.065 µM	CO[C@@H]1[C@@H](n2cc(-c3cc(F)c(F)c(F)c3)nn2)[C@@H](O)[C@@H](CO)O[C@@H]1Cc1cc(C2CCN(C(=O)C(C)C)CC2)on1 [Example 3.33, 1-(4-(3-(((2R,3R,4S,5R,6R)-5-hydroxy-6-(hydroxymethyl)-3-methoxy-4-(4-(3,4,5-trifluorophenyl)-1H-1,2,3-triazol-1-yl)tetrahydro-2H-pyran-2-yl)methyl)isoxazol-5-yl)piperidin-1-yl)-2-methylpropan-1-one]
16 µM	0.55 µM	CO[C@@H]1[C@@H](n2cc(-c3cc(F)c(F)c(F)c3)nn2)[C@@H](O)[C@@H](CO)O[C@@H]1C[C@H]1CC([C@H]2CNC(=O)C2)=NO1 [Ex 1.93]
10.6 µM	0.42 µM	CO[C@@H]1[C@@H](n2cc(-c3cc(F)c(F)c(Cl)c3)nn2)[C@@H](O)[C@@H](CO)O[C@@H]1Cc1cc(C2CCCCC2)on1 [Ex 1.218]
7.02 µM	0.18 µM	CO[C@@H]1[C@@H](n2cc(-c3ccc(C)c(F)c3F)nn2)[C@@H](O)[C@@H](CO)O[C@@H]1Cc1cc([C@H]2C[C@H]2O)on1 [Ex 1.349]
5.85 µM	0.15 µM	CO[C@@H]1[C@@H](n2cc(-c3ccc(C)c(F)c3F)nn2)[C@@H](O)[C@@H](CO)O[C@@H]1Cc1cc(C2(C)CCOCC2)no1 [Ex 1.284]
13.6 µM	0.49 µM	OC[C@H]1O[C@H](Cc2cc(C3(O)CCCC3)on2)[C@H](O)[C@@H](n2cc(-c3cc(F)c(F)c(F)c3)nn2)[C@H]1O [Ex 1.58]
2.28 µM	0.036 µM	CO[C@@H]1[C@@H](n2cc(-c3ccc(C)c(F)c3F)nn2)[C@@H](O)[C@@H](CO)O[C@@H]1Cc1cc(C(C)(C)O)no1 [Example 2.62, (2R,3R,4S,5R,6R)-4-(4-(2,3-difluoro-4-methylphenyl)-1H-1,2,3-triazol-1-yl)-2-(hydroxymethyl)-6-((3-(2-hydroxypropan-2-yl)isoxazol-5-yl)methyl)-5-methoxytetrahydro-2H-pyran-3-ol]

IC50 (human Gal-1 (hGal-1))	IC50 (human Gal-3 (hGal-3))	Compound
9.61 µM	0.99 µM	CC(C)O[C@@H]1[C@@H](n2cc(-c3cc(F)c(F)c(F)c3)nn2)[C@@H](O)[C@@H](CO)O[C@@H]1Cc1cc(C2CCNCC2)on1 [Example 2.24, (2R,3R,4S,5R,6R)-2-(hydroxymethyl)-5-isopropoxy-6-((5-(piperidin-4-yl)isoxazol-3-yl)methyl)-4-(4-(3,4,5-trifluorophenyl)-1H-1,2,3-triazol-1-yl)tetrahydro-2H-pyran-3-ol]
7.94 µM	0.8 µM	OC[C@H]1O[C@H](CC2CC(c3ccc4cn[nH]c4c3)=NO2)[C@H](O)[C@@H](n2cc(-c3cc(F)c(F)c(F)c3)nn2)[C@H]1O (some centres unmarked) [Ex 1.33]
7.44 µM	0.14 µM	CO[C@@H]1[C@@H](n2cc(-c3cc(F)c(F)c(F)c3)nn2)[C@@H](O)[C@@H](CO)O[C@@H]1Cc1cc(C23CCC(N)(CC2)CC3)on1 [Ex 1.131]
1.51 µM	0.12 µM	CO[C@@H]1[C@@H](n2cc(-c3cc(F)c(F)c(F)c3)nn2)[C@@H](O)[C@@H](CO)O[C@@H]1Cc1cc(C2CCN(C(=O)C(C)(C)C)CC2)on1 [Example 3.34, 1-(4-(3-(((2R,3R,4S,5R,6R)-5-hydroxy-6-(hydroxymethyl)-3-methoxy-4-(4-(3,4,5-trifluorophenyl)-1H-1,2,3-triazol-1-yl)tetrahydro-2H-pyran-2-yl)methyl)isoxazol-5-yl)piperidin-1-yl)-2,2-dimethylpropan-1-one]
1.61 µM	0.071 µM	CO[C@@H]1[C@@H](n2cc(-c3ccc(Cl)c(F)c3F)nn2)[C@@H](O)[C@@H](CO)O[C@@H]1Cc1cc(C(C)(CO)CCl)no1 (some centres unmarked) [Ex 1.264]
15.9 µM	1.42 µM	OCCC1CC(C[C@H]2O[C@H](CO)[C@H](O)[C@H](n3cc(-c4cc(F)c(F)c(F)c4)nn3)[C@H]2O)=NO1 (some centres unmarked) [Ex 1.38]
2.45 µM	0.078 µM	CC(=O)O[C@@H]1[C@@H](n2cc(-c3cc(F)c(F)c(F)c3)nn2)[C@@H](O)[C@@H](CO)O[C@@H]1Cc1cc(C2CCN(C(=O)OC(C)(C)C)CC2)on1 [Ex 1.49]
1.05 µM	0.17 µM	CCCO[C@@H]1[C@@H](n2cc(-c3cc(F)c(F)c(F)c3)nn2)[C@@H](O)[C@@H](CO)O[C@@H]1Cc1cc(C2CCN(C(=O)OC(C)(C)C)CC2)on1 [Example 2.19, tert-butyl 4-(3-(((2R,3R,4S,5R,6R)-5-hydroxy-6-(hydroxymethyl)-3-propoxy-4-(4-(3,4,5-trifluorophenyl)-1H-1,2,3-triazol-1-yl)tetrahydro-2H-pyran-2-yl)methyl)isoxazol-5-yl)piperidine-1-carboxylate]
1.35 µM	0.045 µM	CO[C@@H]1[C@@H](n2cc(-c3cc(F)c(F)c(F)c3)nn2)[C@@H](O)[C@@H](CO)O[C@@H]1Cc1cc(C2CCN(S(=O)(=O)N3CCOCC3)CC2)on1 [Example 3.62, (2R,3R,4S,5R,6R)-2-(hydroxymethyl)-5-methoxy-6-((5-(1-(morpholinosulfonyl)piperidin-4-yl)isoxazol-3-yl)methyl)-4-(4-(3,4,5-trifluorophenyl)-1H-1,2,3-triazol-1-yl)tetrahydro-2H-pyran-3-ol]
3.97 µM	0.34 µM	CO[C@@H]1[C@@H](n2cc(-c3cc(F)c(F)c(F)c3)nn2)[C@@H](O)[C@@H](CO)O[C@@H]1Cc1cc(C(C)(C)NC(=O)OC(C)(C)C)no1 [Ex 1.216]
1.05 µM	0.18 µM	CO[C@@H]1[C@@H](n2cc(-c3cccc(F)c3F)nn2)[C@@H](O)[C@@H](CO)O[C@@H]1Cc1cc(C(C)(C)C)on1 [Ex 1.351]
2.87 µM	0.35 µM	CC(C)(C)OC(=O)N1CC(c2cc(C[C@H]3O[C@H](CO)[C@H](O)[C@H](n4cc(-c5cc(F)c(F)c(F)c5)nn4)[C@H]3O)no2)C1 [Ex 1.53]
2.05 µM	0.22 µM	CC(C)O[C@@H]1[C@@H](n2cc(-c3cc(F)c(F)c(F)c3)nn2)[C@@H](O)[C@@H](CO)O[C@@H]1Cc1cc(C2CCN(C(=O)OC(C)(C)C)CC2)on1 [Example 2.23, tert-butyl 4-(3-(((2R,3R,4S,5R,6R)-5-hydroxy-6-(hydroxymethyl)-3-isopropoxy-4-(4-(3,4,5-trifluorophenyl)-1H-1,2,3-triazol-1-yl)tetrahydro-2H-pyran-2-yl)methyl)isoxazol-5-yl)piperidine-1-carboxylate]
17.5 µM	1.15 µM	OC[C@H]1O[C@H](CC2CC(c3ccc4[nH]cnc4c3)=NO2)[C@H](O)[C@@H](n2cc(-c3cc(F)c(F)c(F)c3)nn2)[C@H]1O (some centres unmarked) [Ex 1.26]
2.06 µM	0.032 µM	CO[C@@H]1[C@@H](n2cc(-c3ccc(C)c(F)c3F)nn2)[C@@H](O)[C@@H](CO)O[C@@H]1Cc1cc(C2(C)CC2)no1 [Ex 1.255]
